This note sets out measurements from patent publication US20250114374A1, “BCL-2 INHIBITORS” (Newave Pharmaceutical Inc., priority 2021, published 2025).

The test deals with RS4; 11 with G101V mutation. Description: In vitro anti-proliferation assay (ATPlite luminescence) in BCL-2-dependent ALL cell line RS4;11 with G101V mutation. The format is cell-based. The note with it: cellular anti-proliferative IC50, about 72 hours, medium with 10% FBS, ATPlite; read-out: RS411-G101V IC50. Put shortly: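 IC50 came from luminescent ATP quantification (ATPlite) following cell lysis. Compound dose ranges were applied for roughly 72 h to about 1×10^4 G101V-mutant RS4;11 cells per well, in 10% FBS medium.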
Regarding `CC(C)Oc1ccccc1[C@H]1CN(C2CCC(C)(O)CC2)CCN1C1CC2(CCN(c3ccc(C(=O)NS(=O)(=O)c4ccc(NCC5CCC(C)(O)CC5)c([N+](=O)[O-])c4)c(N4c5cc6cc[nH]c6nc5O[C@H]5COCC[C@@H]54)c3)CC2)C1` (stereo partly drawn) [Example 108, 2-[(3R,8S)-2,5-dioxa-9,15,17-triazatetracyclo[8.7.0.0^{3,8}.0^{12,16}]heptadeca-1(10),11,13,16-tetraen-9-yl]-4-{2-[(2S)-2-(2-isopropoxyphenyl)-4-[(1r,4r)-4-hydroxy-4-methylcyclohexyl]piperazin-1-yl]-7-azaspiro[3.5]nonan-7-yl}-N-[3-nitro-4-({[(1r,4r)-4-hydroxy-4-methylcyclohexyl]methyl}amino)benzenesulfonyl]benzamide], the IC50 – broadly, the concentration that inhibits the measured activity by half – amounted to 7.2 nM.
On to `COc1cc(CN2CCN(C3CC4(CCN(c5ccc(C(=O)NS(=O)(=O)c6ccc(NCC7CCC(C)(O)CC7)c([N+](=O)[O-])c6)c(N6c7cc8cc[nH]c8nc7O[C@H]7COCC[C@@H]76)c5)CC4)C3)[C@@H](c3ccccc3OC(C)C)C2)cnc1C1CC1` (stereo partly drawn) [Example 134, 4-{2-[(2S)-4-[(6-cyclopropyl-5-methoxypyridin-3-yl)methyl]-2-(2-isopropoxyphenyl)piperazin-1-yl]-7-azaspiro[3.5]nonan-7-yl}-2-[(3R,8S)-2,5-dioxa-9,15,17-triazatetracyclo[8.7.0.0^{3,8}.0^{12,16}]heptadeca-1(10),11,13,16-tetraen-9-yl]-N-[3-nitro-4-({[(1r,4r)-4-hydroxy-4-methylcyclohexyl]methyl}amino)benzenesulfonyl]benzamide], for which the IC50 turned out to be 18.8 nM.
For `CC(C)Oc1ccccc1[C@@H]1CN(Cc2ccc(F)c(F)c2)CCN1C1CC2(CCN(c3cc(N4c5cc6cc[nH]c6nc5O[C@H]5COCC[C@@H]54)c(C(=O)NS(=O)(=O)c4cc5c(c([N+](=O)[O-])c4)N[C@H](C4CCOCC4)CO5)cc3F)CC2)C1` [Example 227, 4-{2-[(2R)-4-[(3,4-difluorophenyl)methyl]-2-(2-isopropoxyphenyl)piperazin-1-yl]-7-azaspiro[3.5]nonan-7-yl}-2-[(3R,8S)-2,5-dioxa-9,15,17-triazatetracyclo[8.7.0.0^{3,8}.0^{12,16}]heptadeca-1(10),11,13,16-tetraen-9-yl]-5-fluoro-N-[(3R)-5-nitro-3-(oxan-4-yl)-3,4-dihydro-2H-1,4-benzoxazin-7-ylsulfonyl]benzamide], the IC50 is 119 nM.
In the case of `Cc1cc2c(CN3CCN(C4CC5(CCN(c6ccc(C(=O)NS(=O)(=O)c7ccc(NCC8CCC(C)(O)CC8)c([N+](=O)[O-])c7)c(N7c8cc9cc[nH]c9nc8O[C@H]8COCC[C@@H]87)c6)CC5)C4)[C@@H](c4ccccc4OC(C)C)C3)cnc(N3CCOCC3)c2o1` (stereo partly drawn) [Example 147, 2-[(3R,8S)-2,5-dioxa-9,15,17-triazatetracyclo[8.7.0.0^{3,8}.0^{12,16}]heptadeca-1(10),11,13,16-tetraen-9-yl]-4-{2-[(2S)-2-(2-isopropoxyphenyl)-4-{[2-methyl-7-(morpholin-4-yl)furo[2,3-c]pyridin-4-yl]methyl}piperazin-1-yl]-7-azaspiro[3.5]nonan-7-yl}-N-[3-nitro-4-({[(1r,4r)-4-hydroxy-4-methylcyclohexyl]methyl}amino)benzenesulfonyl]benzamide], the IC50 is 31.9 nM.
In the case of `CC(C)c1ccccc1[C@H]1CN(Cc2ccc(F)c(F)c2)CCN1C1CC2(CCN(c3ccc(C(=O)NS(=O)(=O)c4ccc(NCC5CCOCC5)c([N+](=O)[O-])c4)c(N4c5cc6cc[nH]c6nc5O[C@H]5COCC[C@@H]54)c3)CC2)C1` [Example 166, 4-{2-[(2S)-4-[(3,4-difluorophenyl)methyl]-2-(2-isopropylphenyl)piperazin-1-yl]-7-azaspiro[3.5]nonan-7-yl}-2-[(3R,8S)-2,5-dioxa-9,15,17-triazatetracyclo[8.7.0.0^{3,8}.0^{12,16}]heptadeca-1(10),11,13,16-tetraen-9-yl]-N-{3-nitro-4-[(oxan-4-ylmethyl)amino]benzenesulfonyl}benzamide] it was 585 nM; in that of `Cc1ccccc1[C@@H]1CN(Cc2ccc(F)c(F)c2)CCN1C1CC2(CCN(c3ccc(C(=O)NS(=O)(=O)c4ccc(NCC5CCOCC5)c([N+](=O)[O-])c4)c(N4c5cc6cc[nH]c6nc5O[C@H]5COCC[C@@H]54)c3)CC2)C1` [Example 164, 4-{2-[(2R)-4-[(3,4-difluorophenyl)methyl]-2-(2-methylphenyl)piperazin-1-yl]-7-azaspiro[3.5]nonan-7-yl}-2-[(3R,8S)-2,5-dioxa-9,15,17-triazatetracyclo[8.7.0.0^{3,8}.0^{12,16}]heptadeca-1(10),11,13,16-tetraen-9-yl]-N-{3-nitro-4-[(oxan-4-ylmethyl)amino]benzenesulfonyl}benzamide], 48.5 nM.
As to `Cc1ccccc1[C@@H]1CN([C@@H]2CCOc3cc(F)c(F)cc32)CCN1C1CC2(CCN(c3ccc(C(=O)NS(=O)(=O)c4cc5c(c([N+](=O)[O-])c4)N[C@H](C4CCOCC4)CO5)c(N4c5cc6cc[nH]c6nc5O[C@H]5COCC[C@@H]54)c3)CC2)C1` [Example 171, 4-{2-[(2R)-4-[(4R)-6,7-difluoro-3,4-dihydro-2H-1-benzopyran-4-yl]-2-(2-methylphenyl)piperazin-1-yl]-7-azaspiro[3.5]nonan-7-yl}-2-[(3R,8S)-2,5-dioxa-9,15,17-triazatetracyclo[8.7.0.0^{3,8}.0^{12,16}]heptadeca-1(10),11,13,16-tetraen-9-yl]-N-[(3R)-5-nitro-3-(oxan-4-yl)-3,4-dihydro-2H-1,4-benzoxazin-7-ylsulfonyl]benzamide], the IC50 worked out at 220 nM.
As for `COc1ccc(CN2CCN(C3CC4(CCN(c5ccc(C(=O)NS(=O)(=O)c6ccc(NCC7CCC(C)(O)CC7)c([N+](=O)[O-])c6)c(N6c7cc8cc[nH]c8nc7O[C@H]7COCC[C@@H]76)c5)CC4)C3)[C@@H](c3ccccc3OC(C)C)C2)nc1` (stereo partly drawn) [Example 103, 2-[(3R,8S)-2,5-dioxa-9,15,17-triazatetracyclo[8.7.0.0^{3,8}.0^{12,16}]heptadeca-1(10),11,13,16-tetraen-9-yl]-4-{2-[(2S)-2-(2-isopropoxyphenyl)-4-[(5-methoxypyridin-2-yl)methyl]piperazin-1-yl]-7-azaspiro[3.5]nonan-7-yl}-N-[3-nitro-4-({[(1r,4r)-4-hydroxy-4-methylcyclohexyl]methyl}amino)benzenesulfonyl]benzamide], the figure is 35.1 nM; as for `CC(C)Oc1ccccc1[C@@H]1CN(c2cccnc2)CCN1C1CC2(CCN(c3ccc(C(=O)NS(=O)(=O)c4cc5c(c([N+](=O)[O-])c4)N[C@H](C4CCOCC4)CO5)c(N4c5cc6cc[nH]c6nc5O[C@H]5COCC[C@@H]54)c3)CC2)C1` [Example 224, 2-[(3R,8S)-2,5-dioxa-9,15,17-triazatetracyclo[8.7.0.0^{3,8}.0^{12,16}]heptadeca-1(10),11,13,16-tetraen-9-yl]-4-{2-[(2R)-2-(2-isopropoxyphenyl)-4-(pyridin-3-yl)piperazin-1-yl]-7-azaspiro[3.5]nonan-7-yl}-N-[(3R)-5-nitro-3-(oxan-4-yl)-3,4-dihydro-2H-1,4-benzoxazin-7-ylsulfonyl]benzamide], 136 nM.
